According to US11472752B2, “Method for making resistant to thiodicarb (carbamate) and bifenthrin (pyrethroid) a consortium of fungi that solubilise phosphorous and antagonise certain pathogens, for use in liquid biofertilisers for foliar and/or soil application” (priority 2018, dated 2022):

Legend:
Test in all cases: Stagewise adaptation on growth media poisoned with thiodicarb or bifenthrin; mortality rate
Assay type in all cases: cell-based
Metarhizium anisopliae = settings: for Resistant to: FINAL: final development characteristics
Protocol: (§1) Strains of sulphur sulubilizer fungi, antagonist to some pathogens: • a) Paecilomyces sp. • b) Beauveria bassiana • c) Trichoderma harzianum • d) Metarhizium anisopliae Preparation for Stage Development 1. Glass material is sterilized in an autoclave. 2. The required amount of growth media is prepared with 3% rice broth (P/V), and 9% of a solution of molasses, sterilized at 121° C. for 15 minutes at a pressure of 15 lb. 3. Lethal dose (LD) applied to a hectare is established, for thiodicarb as well as bifenthrin. 10 Petri dishes are prepared with 0.1 LD of thiodicarb of bifenthrin. Dishes are incubated at 25° C. for 72 hours with cold light. 4. From the previous suspension with a known concentration, (107) the growth media is seeded with 1 ml, the pH adjustment is performed at 5.5 with a sterile 10 citric acid solution. 5. Stir at 110 rpm and 27 OC for 7 days. 6. The process is monitored controlling the variables, mainly the pH and biomass concentration, adjusting the pH to 5.5 during the entire process. 7. On the fourth day of the process, the foam formation is controlled with 1% soy oil and the stirring speed. Methodology a. Petri dishes are placed inside the laminar flow chamber along with the diluted samples, to seed microorganisms in the dishes, a one ml sample of the strain is taken with an automated pipette, 10^−1 and 10^−2 solutions are performed, and each solution is homogenized. b. Having the petri dishes with the sterile and cold growth media, it is homogenized with 6 right to left movements, 6 clockwise movements, 6 counterclockwise movements and 6 front to back movements over a flat horizontal surface until the inoculum is completely integrated into the media, stand until it solidifies and each dish is covered with parafilm to avoid contamination during incubation. c. Dishes with thiodicarb and Bifenthrin are placed inside the incubator at 25° C. for 72 hours with a cold light lamp. d. Inoculated dishes are incubated for 15 days, the product concentration impact is determined on mycelial growth, sporulation and germination (12 hours of incubation). e. The residual impact of the product is reviewed after 7 days in the malt agar, dextrose and PDA agar media, enriched with minerals. f. If there is no growth over 10%, the process is repeated until a mortality under 90% is obtained. g. […] After that, the suspension is stirred for 30 seconds in a Vortex tube mixer. The spore concentration is measured in a Newbawer Chamber and the results are reported in conidia per […]. i. From the 10 Petri dishes for each microorganism, the one with the lowest mortality rate is the one that will continue with the following study. j. The study is performed again using this percentage until coverage increases and so on, the addition of thiodicarb and bifenthrin is alternated with the LD in intervals of 0.1 LD; all these experiments have been designed with the experimental strains and a control. k. With the data obtained from the mycelial growth and sporulation, the percentage of inhibition of gradual growth is obtained, the data is transformed for its analysis with the expression 2 arc sin, and the sporulation through the equation Log 10(x+10). A two-way classification analysis of variance is applied and later the Turkey test is performed using a 5% probability.
(§2) For each species, stages analyzing times required to cover the entire field were performed. Once this time was determined, they were left to rest for 10 days to be later subject to the following protocol: […]

Beauveria bassiana = settings: for Resistant to: FINAL: final characteristics after selective process
Protocol: as §1
(§3) For each species, stages analyzing times required to cover the entire field were performed. Once this time was determined, they were left to rest for 10 days to be later subject to the following protocol:
Stages begin with the conditions in its natural habitat: pH—7.0 a 7.5, Humidity: 30 to 40% and humidity is increased up to 70% and a Temperature from 28 to 30° C., maintained during all the research term. These conditions are the starting point to adapt the strain to thiodicarb (carbamate) and bifenthrin (pyrethroid). During all stages, we will be using a cold light lamp to adapt the microorganism to sunlight.

Trichoderma harzianum = test system: Trichoderma harzianum
Protocol: as §1, §3
Procedures begin with the conditions in its natural habitat: Humidity: 30 to 40% and humidity is increased up to 70% and a Temperature from 28 to 30° C., maintained during all the research term. pH from 7.0 to 7.5. These conditions are the starting point to adapt the strain to thiodicarb and bifenthrin.

Paecilomyces sp. = test system: Paecilomyces sp.
Protocol: Strains of sulphur sulubilizer fungi, antagonist to some pathogens: • a) Paecilomyces sp. • b) Beauveria bassiana • c) Trichoderma harzianum • d) Metarhizium anisopliae Preparation for Stage Development 1. Glass material is sterilized in an autoclave. 2. The required amount of growth media is prepared with 3% rice broth (P/V), and 9% of a solution of molasses, sterilized at 121° C. for 15 minutes at a pressure of 15 lb. 3. Lethal dose (LD) applied to a hectare is established, for thiodicarb as well as bifenthrin. 10 Petri dishes are prepared with 0.1 LD of thiodicarb of bifenthrin. Dishes are incubated at 25° C. for 72 hours with cold light. 4. […] The process is monitored controlling the variables, mainly the pH and biomass concentration, adjusting the pH to 5.5 during the entire process. […] Inoculated dishes are incubated for 15 days, the product concentration impact is determined on mycelial growth, sporulation and germination (12 hours of incubation). e. […] The spore concentration is measured in a Newbawer Chamber and the results are reported in conidia per square millimeter. i. […]
as §2

[1] = stages E-25 and E-26, 0.7 LD (0.00012 gr)
[2] = stages E-43 and E-44, 1.2 LD (0.00022 gr)
[3] = stages E-49 and E-50, 1.1 LD (0.00024 gr)
[4] = stages E-51 and E-52, 1.2 LD (0.00026 gr)
[5] = stages E-3 and E-4, 0.2 LD (0.000035 gr)
[6] = stages E-33 and E-34, 0.9 LD (0.00016 gr)
[7] = stages E-35 and E-36, 1 LD (0.00018 gr)

For `Cc1c(COC(=O)[C@@H]2[C@H](/C=C(\Cl)C(F)(F)F)C2(C)C)cccc1-c1ccccc1` (racemic) [bifenthrin, 2-methyl biphenyl-3-ilmetil(2)-(1RS,3RS)-3-(2-chlorine 3,3,3-trifluoropropene)-2,2-dimethyl-cyclo-propane-carboxylate], the “Resistant to: FINAL” value (Metarhizium anisopliae) was 1.3 LD of and the “Resistant to: FINAL” value (Beauveria bassiana) was 1 LD of thiodicarb.

With `CS/C(C)=N\OC(=O)N(C)SN(C)C(=O)O/N=C(\C)SC` [thiodicarb] the mortality rate (Trichoderma harzianum; stage E-1, 0.1 LD (0.0000175 gr), until day 68 of incubation) was 82%, the mortality rate (Trichoderma harzianum; stage E-2, 0.1 LD (0.0000175 gr)) was 85% and the mortality rate (Trichoderma harzianum; stages E-11 and E-12, 0.4 LD (0.000070 gr)) was 75%. The mortality rate (Trichoderma harzianum; stages E-19 and E-20, 0.6 LD (0.00011 gr)) was 66%, the mortality rate (Trichoderma harzianum; [1]) was 60% and the mortality rate (Trichoderma harzianum; [2]) was 18%. The mortality rate (Trichoderma harzianum; [3]) was 10%, the mortality rate (Trichoderma harzianum; [4]) was 8% and the “Resistant to: FINAL” value (Metarhizium anisopliae) was 1.3 LD of. The mortality rate (Metarhizium anisopliae; [5]) was 55%, the mortality rate (Metarhizium anisopliae; [6]) was 15% and the mortality rate (Metarhizium anisopliae; [7]) was 15%. The “Resistant to: FINAL” value (Beauveria bassiana) was 1 LD of thiodicarb, the mortality rate (Beauveria bassiana; stages E-1 and E-2, 0.1 LD (0.0000175 gr), 32% humidity) was 73% and the mortality rate (Beauveria bassiana; [5]) was 73-79%. For the same compound, the mortality rate (Beauveria bassiana; [1]) was 23%, the mortality rate (Beauveria bassiana; [7]) was 26% and the mortality rate (Beauveria bassiana; [2]) was 20%. The mortality rate (Beauveria bassiana; [3]) was 14%, the mortality rate (Beauveria bassiana; [4]) was 11% and the mortality rate (Paecilomyces sp.; [6]) was 8%. The mortality rate (Paecilomyces sp.; [7]) was 15%.
